Laboratory results from patent US20220089663A1, “PROTEINS AND FLUOROPHORE-CONTAINING COMPOUNDS SELECTIVE FOR NaV1.7” (MEMORIAL SLOAN KETTERING CANCER CENTER, priority 2019, published 2022).

How the values were obtained:
hNav1.7 = target: T1, hNav1.7 (Homo sapiens, UniProt Q15858); assay: automated whole-cell patch clamp (QPatch 16X), HEK293-hNav1.7; format: cell-based
T1 construct: host or cells: HEK293

[1] = acute in vivo toxicity after intravenous injection; design: species or system mouse
Procedure: Acute in vivo toxicity. All animal experiments were performed in accordance with protocols approved by the Institutional Animal Care and Use Committee of MSK and followed the National Institute of Health guidelines for animal welfare. Six athymic nude mice 6-8 weeks old were purchased from Envigo RMS, Inc. An intravenous (IV) catheter was placed in tail vein of each mouse and they were anesthetized using Isoflurane (Novaplus, Telangana-India). Anesthesia was maintained using 1.0 to 1.5 L/min of Isoflurane and 2 L/min of oxygen. Three animals were injected with 68 μM, 7 nmol Hsp1a-FL in 100 μL of PBS, and the other three with […], of PBS. Animals were monitored using a rodent surgical monitor (Indus instruments, Houston, Tex.) before, during, and up to 16 minutes after injection. Numeric data points represent averaged values of 5±1 seconds duration. Data was collected before injection, 15 seconds after injection, 5 minutes after injection and 15 minutes after injection. Mouse body core temperature was measured by placing a rectal probe and electronically regulated via a surgical platform. The high-resolution electrocardiogram (EKG) was measured by placing non-invasive electrodes on the 4 paws and electrical contact was assured using a conducting gel (Electrode cream, Indus instruments, Houston, Tex.). Heart rate was automatically calculated from the R-R peaks derived from the EKG signal. Peripheral capillary oxygen saturation (SpO2) was non-invasively measured by placing a clip sensor on the animal's left thigh.
Statistical Analysis. Data were statistically analyzed by generalized estimating equations followed by LSD post hoc test when appropriate using SPSS 23.0. During animal toxicity studies, data points representing loss of signal were excluded from the analysis. Loss of signal was defined by a brief contact loss between the monitoring equipment and the mice (creating a “false” zero or −1 result). Loss of signal was corrected by placing the electrode in close contact to the mice. Average and standard deviations were calculated for each mouse.
Unless otherwise stated, data points represent mean values and error bars represent the standard deviation of biological replicates (mean±SEM). All p-values were calculated using a Student's unpaired t-test. Statistical significance was considered for p-values<0.05 and as follows: ns=not significant, *p<0.05, **p<0.01, ***p<0.001. Mann-Whitney tests were used for analysis of the unpaired samples (e.g. vital signs in mice injected with Hsp1a and mice from the control group) and the Wilcoxon test was used for analysis of paired samples (e.g. vital signs from same mouse before and after injection). Statistical significance was determined with alpha=0.05. Analysis and figures were prepared in GraphPad Prism 8.

in vitro = details: human, serum
[2] = 10 μM, human serum, 37° C.
mouse sciatic nerves = assay: epifluorescence imaging (IVIS Spectrum) of sciatic nerves and organs 30 min after injection; format: in vivo; details: 30 minutes after systemic injection
Procedure: Animal Model. Female athymic nude mice (4-8 week-old, athymic-Nude (outbred) (Stock #: 088; Envigo, USA) were allowed to acclimatize at the Memorial Sloan Kettering Cancer Center (MSK) vivarium for 1 week with ad libitum food and water prior to the experimental procedure. For imaging experiments, animals were sacrificed 30 min post-tail vein injection of Hs1a-FL, Hs1a/Hs1a-FL, Hsp1a-FL, Hsp1a/Hsp1a-FL, or PBS. All animal experiments were performed in accordance with institutional guidelines and approved by the IACUC of MSK, following NIH guidelines for animal welfare.
Epifluorescence Imaging. Animals were intravenously injected with Hsp1a-FL (7 nmol, 68 μM of Hsp1a-FL in 100 μL of PBS, n=9), or Hs1a-FL (4 nmol, 45 μM of Hs1a-FL in 100 μL of PBS, n=3). To assess the specificity of the Hsp1a-FL or Hs1a-FL accumulation, animals were injected with a combination of Hsp1a and Hsp1a-FL (Hsp1a-FL, 68 μM, 7 nmol and Hsp1a 204 μM, 21 nmol in 100 μL PBS, n=9), Hs1a and Hs1a-FL (Hs1a-FL, 45 μM, 4 nmol and Hs1a, 120 μM, 12 nmol in 100 μL PBS, n=3) or PBS (n=9). Animals were sacrificed 30 min post-injection and epifluorescence images obtained. Epifluorescence images of the right sciatic nerve (RSN) and the left sciatic nerve (LSN) were obtained in situ. Epifluorescence of the biodistribution of the peptides in excited RSN, LSN, muscle, heart, kidney, liver, and brain were acquired with IVIS Spectrum (PerkinElmer) using a predefined GFP filterset (e.g., excitation=465/30 nm, emission=520-580 nm) based on the particular fluorophore employed in the compounds. Autofluorescence was removed through spectral unmixing. Semiquantitative analysis of the Hsp1a-FL or Hs1a-FL signal was conducted by measuring the average radiant efficiency (in units of unit [p/s/cm^2/sr]/[μW/cm^2]) in regions of interest (ROIs) that were placed on all resected organs under white light guidance.

T1 sequence (Q15858 whole entry): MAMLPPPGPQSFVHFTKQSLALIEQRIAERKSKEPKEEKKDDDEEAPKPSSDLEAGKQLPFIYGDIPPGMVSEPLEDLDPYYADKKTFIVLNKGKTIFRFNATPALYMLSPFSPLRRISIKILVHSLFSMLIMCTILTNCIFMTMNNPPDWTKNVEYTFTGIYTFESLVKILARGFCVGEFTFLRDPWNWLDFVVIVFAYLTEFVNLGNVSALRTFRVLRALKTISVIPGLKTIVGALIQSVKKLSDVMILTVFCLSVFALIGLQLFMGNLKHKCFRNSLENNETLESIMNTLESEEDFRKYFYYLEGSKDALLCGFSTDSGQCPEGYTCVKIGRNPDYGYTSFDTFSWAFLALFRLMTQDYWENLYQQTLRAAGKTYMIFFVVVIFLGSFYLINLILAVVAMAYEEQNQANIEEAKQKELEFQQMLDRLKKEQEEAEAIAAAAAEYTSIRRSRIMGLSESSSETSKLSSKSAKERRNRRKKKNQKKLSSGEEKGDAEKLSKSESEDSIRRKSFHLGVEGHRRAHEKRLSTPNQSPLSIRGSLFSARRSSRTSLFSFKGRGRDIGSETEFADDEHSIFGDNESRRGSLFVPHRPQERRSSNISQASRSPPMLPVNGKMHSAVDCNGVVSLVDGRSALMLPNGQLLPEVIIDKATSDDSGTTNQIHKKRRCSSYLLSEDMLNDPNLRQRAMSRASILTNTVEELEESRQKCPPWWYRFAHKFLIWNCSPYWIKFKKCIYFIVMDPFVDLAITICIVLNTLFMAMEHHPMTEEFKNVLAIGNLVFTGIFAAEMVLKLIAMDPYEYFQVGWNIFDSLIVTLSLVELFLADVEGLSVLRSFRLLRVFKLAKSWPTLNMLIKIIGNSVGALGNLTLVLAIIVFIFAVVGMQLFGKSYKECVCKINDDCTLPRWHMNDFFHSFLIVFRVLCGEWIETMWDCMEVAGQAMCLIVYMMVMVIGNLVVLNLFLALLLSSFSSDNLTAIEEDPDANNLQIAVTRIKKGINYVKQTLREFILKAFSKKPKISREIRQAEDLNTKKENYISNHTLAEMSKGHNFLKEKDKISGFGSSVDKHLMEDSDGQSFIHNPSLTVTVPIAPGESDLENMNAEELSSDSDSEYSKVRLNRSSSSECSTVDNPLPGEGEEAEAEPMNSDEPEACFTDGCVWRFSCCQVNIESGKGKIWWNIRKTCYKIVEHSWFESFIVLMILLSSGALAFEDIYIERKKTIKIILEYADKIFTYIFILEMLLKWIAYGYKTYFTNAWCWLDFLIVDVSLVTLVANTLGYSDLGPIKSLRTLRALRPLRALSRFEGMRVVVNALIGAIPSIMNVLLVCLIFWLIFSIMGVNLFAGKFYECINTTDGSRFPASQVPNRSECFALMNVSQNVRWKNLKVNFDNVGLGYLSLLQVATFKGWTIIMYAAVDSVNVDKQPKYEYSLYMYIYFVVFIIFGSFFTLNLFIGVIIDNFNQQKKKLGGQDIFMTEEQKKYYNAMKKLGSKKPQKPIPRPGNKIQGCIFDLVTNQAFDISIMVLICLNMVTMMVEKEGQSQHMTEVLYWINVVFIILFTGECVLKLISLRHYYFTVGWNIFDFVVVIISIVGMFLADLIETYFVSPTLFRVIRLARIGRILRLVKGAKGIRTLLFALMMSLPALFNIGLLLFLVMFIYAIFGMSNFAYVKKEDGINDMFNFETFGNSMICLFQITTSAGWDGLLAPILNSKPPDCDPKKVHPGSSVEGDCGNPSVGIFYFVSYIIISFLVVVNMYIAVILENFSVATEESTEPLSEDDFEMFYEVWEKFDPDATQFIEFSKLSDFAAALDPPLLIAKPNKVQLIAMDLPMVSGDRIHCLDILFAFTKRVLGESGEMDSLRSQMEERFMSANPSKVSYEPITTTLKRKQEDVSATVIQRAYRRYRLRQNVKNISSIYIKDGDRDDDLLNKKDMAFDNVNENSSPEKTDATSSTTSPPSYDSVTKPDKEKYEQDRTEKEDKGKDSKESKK
T1 sequence (Q07699 19-218, further chain): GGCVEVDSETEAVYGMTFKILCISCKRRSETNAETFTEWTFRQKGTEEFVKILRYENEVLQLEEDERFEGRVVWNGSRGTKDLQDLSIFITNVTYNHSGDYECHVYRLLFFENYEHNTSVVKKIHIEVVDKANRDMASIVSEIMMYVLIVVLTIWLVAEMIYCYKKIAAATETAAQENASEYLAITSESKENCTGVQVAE

For `CC[C@H](C)[C@H](NC(=O)[C@H](CCCCN)NC(=O)[C@@H]1CSSC[C@@H]2NC(=O)[C@@H]3CCCN3C(=O)[C@H](CCCNC(=N)N)NC(=O)[C@H](CCC(=O)O)NC(=O)[C@H](CO)NC(=O)[C@H](CC(=O)O)NC(=O)[C@@H]3CSSC[C@H](NC(=O)[C@H](C(C)C)NC(=O)[C@H](CC(C)C)NC(=O)CNC(=O)[C@H](CCC(=O)O)NC(=O)[C@H](CSSC[C@H](NC(=O)[C@@H](N)Cc4ccc(O)cc4)C(=O)N[C@@H](CCC(N)=O)C(=O)N[C@@H](CCCCN)C(=O)N[C@@H](Cc4ccccc4)C(=O)N[C@@H](CC(C)C)C(=O)N[C@@H](Cc4c[nH]c5ccccc45)C(=O)N[C@@H]([C@@H](C)O)C(=O)N3)NC2=O)C(=O)N[C@@H](CCCNC(=N)N)C(=O)N[C@@H](CC(C)C)C(=O)N[C@@H](Cc2c[nH]c3ccccc23)C(=O)N1)C(=O)N[C@@H](CC(N)=O)C(N)=O` [Hsp1a], the “pIC50 difference to sHsp1a on hNav1.7” value (hNav1.7) was “no significant pIC50s difference”, the IC50 (hNav1.7; HEK293 cells stably expressing human channel, read-out: IC50 Nav1.7) was 13 nM and the average core temperature ([1]; 15 seconds post injection) was 34.5 °C. The average core temperature ([1]; 5 min post-injection) was 34.6 °C, the average core temperature ([1]; 15 minutes post-injection) was 34.6 °C and the EKG pattern ([1]; before and up to 16 minutes after injection) was “No changes were observed”.

Work on `CSCC[C@@H]1NC(=O)[C@H](CC(C)C)NC(=O)[C@H](CCCNC(=N)N)NC(=O)[C@H](CO)NC(=O)[C@@H]2CSSC[C@@H]3NC(=O)[C@H](CO)NC(=O)CNC(=O)[C@H]([C@@H](C)O)NC(=O)[C@H](CSSC[C@H](N)C(=O)N[C@@H](CCCCN)C(=O)NCC(=O)N[C@@H](CCCCN)C(=O)NCC(=O)N[C@@H](C)C(=O)N[C@@H](CCCCN)C(=O)N2)NC(=O)[C@H](CSSC[C@@H](C(N)=O)NC(=O)[C@H](CCCCN)NC(=O)CNC(=O)[C@H](CO)NC(=O)[C@H](CCCNC(=N)N)NC3=O)NC(=O)[C@H](CC(=O)O)NC(=O)[C@H](Cc2ccc(O)cc2)NC1=O` [MVIIA] yielded a remaining at 24 h (in vitro) of 50%.

With `CC[C@H](C)[C@@H]1NC(=O)[C@H](CCCNC(=N)N)NC(=O)[C@H](CC(=O)O)NC(=O)[C@H](CCSC)NC(=O)[C@H](CCCNC(=N)N)NC(=O)CNC(=O)CNC(=O)[C@H](Cc2ccccc2)NC(=O)[C@@H](NC(=O)[C@H](CO)NC(=O)[C@H](CO)NC(=O)[C@H](CCCNC(=N)N)NC(=O)[C@H](CCCNC(=N)N)NC(=O)[C@H](CC(C)C)NC(=O)[C@@H](N)CO)CSSC[C@@H](C(=O)N[C@@H](CC(N)=O)C(=O)N[C@@H](CO)C(=O)N[C@@H](Cc2ccccc2)C(=O)N[C@@H](CCCNC(=N)N)C(=O)N[C@@H](Cc2ccc(O)cc2)C(=O)O)NC(=O)CNC(=O)[C@H](CC(C)C)NC(=O)CNC(=O)[C@H](CO)NC(=O)[C@H](CCC(N)=O)NC(=O)[C@H](C)NC(=O)CNC1=O` [hANP, reference compound] the “time of incubation in which degraded” value [2] was 1 to 2 h.

In the case of “YCQK(BODIPY665)FLWTCDSERPCCEGLVCRLWCKIN-NH2 (N-terminal YCQK(BODIPY665) extension; C-terminal amide) [Hsp1a-BODIPY665]”, the “biodistribution in various tissues” value (mouse sciatic nerves) is reported as “limited to the peripheral nervous system”.

For “YCQK(CY7.5)FLWTCDSERPCCEGLVCRLWCKIN-NH2 (N-terminal YCQK(CY7.5) extension; C-terminal amide) [Hsp1a-CY7.5]”, the “biodistribution in various tissues” value (mouse sciatic nerves) was “limited to the peripheral nervous system”.

In the case of “YCQK(DY-684)FLWTCDSERPCCEGLVCRLWCKIN-NH2 (N-terminal YCQK(DY-684) extension; C-terminal amide) [Hsp1a-DY-684]”, the “biodistribution in various tissues” value (mouse sciatic nerves) is reported as “limited to the peripheral nervous system”.

In the case of “YCQK(IR-800)FLWTCDSERPCCEGLVCRLWCKIN-NH2 (N-terminal YCQK(IR-800) extension; C-terminal amide) [Hsp1a-IR800]”, the “biodistribution in various tissues” value (mouse sciatic nerves) is reported as “limited to the peripheral nervous system”.

With “YCQK(Jane1ia669)FLWTCDSERPCCEGLVCRLWCKIN-NH2 (N-terminal YCQK(Janelia669) extension; C-terminal amide) [Hsp1a-Janelia669]” the “biodistribution in various tissues” value (mouse sciatic nerves) was “limited to the peripheral nervous system”.
